# Source: patent US9409884B2 (Rigel Pharmaceuticals, Inc., priority 2012, dated 2016)
# Target: AMPK
# Experiment: AMPK activation, enzyme-linked immunosorbent assay
# Format: biochemical
# Conditions: Table 8, compounds of Table 1
# Procedure: Compounds of Table 1 were assayed for their ability to activate AMPK using an enzyme-linked immunosorbent assay.
# Compounds of Table 2 were assayed for their ability to activate AMPK using an enzyme-linked immunosorbent assay.
# Compounds of Table 3 were assayed for their ability to activate AMPK using an enzyme-linked immunosorbent assay.
# Compounds of Table 4 were assayed for their ability to activate AMPK using an enzyme-linked immunosorbent assay.
# Compounds of Table 5 were assayed for their ability to activate AMPK using an enzyme-linked immunosorbent assay.
# Compounds of Table 6 were assayed for their ability to activate AMPK using an enzyme-linked immunosorbent assay.
# Compounds of Table 7 were assayed for their ability to activate AMPK using an enzyme-linked immunosorbent assay.
row,Structure (SMILES),EC50 [nM]
1,"O=C(c1ccc(F)cc1)N1CCC(NS(=O)(=O)c2ccc(OC3CCN(c4ccc(C(F)(F)F)cc4)CC3)nc2)CC1 [Compound 1-60, N-(1-(4-fluorobenzoyl)piperidin-4-yl)-6-(1-(4-(trifluoromethyl)phenyl)piperidin-4-yloxy)pyridine-3-sulfonamide]",> 10000
2,"Cc1c(C(=O)NC2CCN(C(=O)OC(C)(C)C)CC2)oc2cc(OC3CCN(c4ccc(C(F)(F)F)cc4)CC3)ccc12 [Compound 1-61, tert-butyl 4-(3-methyl-6-(1-(4-(trifluoromethyl)phenyl)piperidin-4-yloxy)benzofuran-2-carboxamido) piperidine-1-carboxylate]",100 to 500
3,"Cc1c(C(=O)NC2CCNCC2)oc2cc(OC3CCN(c4ccc(C(F)(F)F)cc4)CC3)ccc12 [Compound 1-62, 3-methyl-N-(piperidin-4-yl)-6-(1-(4-(trifluoromethyl)phenyl)piperidin-4-yloxy)benzofuran-2-carboxamide]",5000 to 10000
4,"Cc1c(C(=O)NC2CCN(Cc3ccc(F)cc3)CC2)oc2cc(OC3CCN(c4ccc(C(F)(F)F)cc4)CC3)ccc12 [Compound 1-63, N-(1-(4-fluorobenzyl)piperidin-4-yl)-3-methyl-6-(1-(4-(trifluoromethyl)phenyl)piperidin-4-yloxy)benzofuran-2-carboxamide]",< 100
5,"Cc1c(C(=O)NC2CCN(Cc3ccc(C#N)cc3)CC2)oc2cc(OC3CCN(c4ccc(C(F)(F)F)cc4)CC3)ccc12 [Compound 1-64, N-(1-(4-cyanobenzyl)piperidin-4-yl)-3-methyl-6-(1-(4-(trifluoromethyl)phenyl)piperidin-4-yloxy)benzofuran-2-carboxamide]",< 100
6,"Cc1c(C(=O)NC2CCN(Cc3ccncc3)CC2)oc2cc(OC3CCN(c4ccc(C(F)(F)F)cc4)CC3)ccc12 [Compound 1-65, 3-methyl-N-(1-(pyridin-4-ylmethyl)piperidin-4-yl)-6-(1-(4-(trifluoromethyl)phenyl)piperidin-4-yloxy)benzofuran-2-carboxamide]",< 100
7,"Cc1c(C(=O)NC2CCN(Cc3cccc(C#N)c3)CC2)oc2cc(OC3CCN(c4ccc(C(F)(F)F)cc4)CC3)ccc12 [Compound 1-66, N-(1-(3-cyanobenzyl)piperidin-4-yl)-3-methyl-6-(1-(4-(trifluoromethyl)phenyl)piperidin-4-yloxy)benzofuran-2-carboxamide]",< 100
8,"Cc1c(C(=O)NC2CCN(Cc3ccccc3C#N)CC2)oc2cc(OC3CCN(c4ccc(C(F)(F)F)cc4)CC3)ccc12 [Compound 1-67, N-(1-(2-cyanobenzyl)piperidin-4-yl)-3-methyl-6-(1-(4-(trifluoromethyl)phenyl)piperidin-4-yloxy)benzofuran-2-carboxamide]",< 100
9,"Cc1c(C(=O)NC2CCN(Cc3ccccn3)CC2)oc2cc(OC3CCN(c4ccc(C(F)(F)F)cc4)CC3)ccc12 [Compound 1-68, 3-methyl-N-(1-(pyridin-2-ylmethyl)piperidin-4-yl)-6-(1-(4-(trifluoromethyl)phenyl)piperidin-4-yloxy)benzofuran-2-carboxamide]",< 100
10,"Cc1c(C(=O)NC2CCN(Cc3cccnc3)CC2)oc2cc(OC3CCN(c4ccc(C(F)(F)F)cc4)CC3)ccc12 [Compound 1-69, 3-methyl-N-(1-(pyridin-3-ylmethyl)piperidin-4-yl)-6-(1-(4-(trifluoromethyl)phenyl)piperidin-4-yloxy)benzofuran-2-carboxamide]",< 100
11,"N#Cc1ccc(CN2CCC(Oc3ccc4oc(C(=O)NC5CCN(Cc6ccccc6)CC5)cc4c3)CC2)cc1 [Compound 1-70, N-(1-benzylpiperidin-4-yl)-5-(1-(4-cyanobenzyl)piperidin-4-yloxy)benzofuran-2-carboxamide]",< 100
12,"N#Cc1ccc(N2CCC(Oc3ccc4oc(C(=O)NC5CCN(Cc6ccccc6)CC5)cc4c3)CC2)cc1 [Compound 1-71, N-(1-benzylpiperidin-4-yl)-5-(1-(4-cyanophenyl)piperidin-4-yloxy)benzofuran-2-carboxamide]",< 100
13,"O=C(NC1CCN(Cc2ccccc2)CC1)c1cc2cc(OC3CCN(Cc4ccc(Cl)cc4)CC3)ccc2o1 [Compound 1-72, N-(1-benzylpiperidin-4-yl)-5-(1-(4-chlorobenzyl)piperidin-4-yloxy)benzofuran-2-carboxamide]",100 to 500
14,"O=C(NC1CCN(Cc2ccccc2)CC1)c1cc2cc(OC3CCN(Cc4cccc(C(F)(F)F)c4)CC3)ccc2o1 [Compound 1-73, N-(1-benzylpiperidin-4-yl)-5-(1-(3-(trifluoromethyl)benzyl)piperidin-4-yloxy)benzofuran-2-carboxamide]",500 to 1000
15,"O=C(NC1CCN(Cc2ccccc2)CC1)c1cc2cc(OC3CCN(Cc4ccc(F)c(F)c4)CC3)ccc2o1 [Compound 1-74, N-(1-benzylpiperidin-4-yl)-5-(1-(3,4-difluorobenzyl)piperidin-4-yloxy)benzofuran-2-carboxamide]",100 to 500
16,"O=C(NC1CCN(Cc2ccccc2)CC1)c1cc2cc(OC3CCN(c4ccc(C(F)(F)F)cc4)CC3)ccc2o1 [Compound 1-75, N-(1-benzylpiperidin-4-yl)-5-(1-(4-(trifluoromethyl)phenyl)piperidin-4-yloxy)benzofuran-2-carboxamide]",< 100
17,"O=C(NC1CCN(Cc2ccncc2)CC1)c1cc2cc(OC3CCN(c4ccc(C(F)(F)F)cc4)CC3)ccc2o1 [Compound 1-76, N-(1-(pyridin-4-ylmethyl)piperidin-4-yl)-5-(1-(4-(trifluoromethyl)phenyl)piperidin-4-yloxy)benzofuran-2-carboxamide]",100 to 500
18,"O=C(NC1CCN(Cc2ccncc2)CC1)c1cc2cc(OC3CCN(Cc4ccc(Cl)cc4)CC3)ccc2o1 [Compound 1-77, 5-(1-(4-chlorobenzyl)piperidin-4-yloxy)-N-(1-(pyridin-4-ylmethyl)piperidin-4-yl)benzofuran-2-carboxamide]",100 to 500
19,"O=C(NC1CCN(Cc2ccncc2)CC1)c1cc2cc(OC3CCN(c4ccc(OC(F)(F)F)cc4)CC3)ccc2o1 [Compound 1-78, N-(1-(pyridin-4-ylmethyl)piperidin-4-yl)-5-(1-(4-(trifluoromethoxy)phenyl)piperidin-4-yloxy)benzofuran-2-carboxamide]",< 100
20,"N#Cc1ccc(CN2CCC(Oc3ccc4oc(C(=O)NC5CCN(Cc6ccncc6)CC5)cc4c3)CC2)cc1 [Compound 1-79, 5-(1-(4-cyanobenzyl)piperidin-4-yloxy)-N-(1-(pyridin-4-ylmethyl)piperidin-4-yl)benzofuran-2-carboxamide]",100 to 500

# The next lines start with the values.
row,EC50 [nM],Structure (SMILES)
1,< 100,"O=C(NC1CCN(Cc2ccccc2)CC1)c1cc2cc(OC3CCN(c4ccc(OC(F)(F)F)cc4)CC3)ccc2o1 [Compound 1-80, N-(1-benzylpiperidin-4-yl)-5-(1-(4-(trifluoromethoxy)phenyl)piperidin-4-yloxy)benzofuran-2-carboxamide]"
2,100 to 500,"CC(C)(C)OC(=O)N1CCC(NC(=O)c2cc3ccc(OC4CCN(c5ccc(OC(F)(F)F)cc5)CC4)cc3o2)CC1 [Compound 1-81, tert-butyl 4-(6-(1-(4-(trifluoromethoxy)phenyl)piperidin-4-yloxy)benzofuran-2-carboxamido) piperidine-1-carboxylate]"
3,100 to 500,"CC(C)(C)OC(=O)N1CCC(NC(=O)c2cc3ccc(OC4CCN(c5ccc(C(F)(F)F)cc5)CC4)cc3o2)CC1 [Compound 1-82, tert-butyl 4-(6-(1-(4-(trifluoromethyl)phenyl)piperidin-4-yloxy)benzofuran-2-carboxamido) piperidine-1-carboxylate]"
4,100 to 500,"O=C(NC1CCNCC1)c1cc2ccc(OC3CCN(c4ccc(OC(F)(F)F)cc4)CC3)cc2o1 [Compound 1-83, N-(piperidin-4-yl)-6-(1-(4-(trifluoromethoxy)phenyl)piperidin-4-yloxy)benzofuran-2-carboxamide]"
5,5000 to 10000,"O=C(NC1CCNCC1)c1cc2ccc(OC3CCN(c4ccc(C(F)(F)F)cc4)CC3)cc2o1 [Compound 1-84, N-(piperidin-4-yl)-6-(1-(4-(trifluoromethyl)phenyl)piperidin-4-yloxy)benzofuran-2-carboxamide]"
6,500 to 1000,"CC(C)(C)OC(=O)N1CCC(NC(=O)c2cc3cc(OC4CCN(c5ccc(C(F)(F)F)cc5)CC4)ccc3o2)CC1 [Compound 1-85, tert-butyl 4-(5-(1-(4-(trifluoromethyl)phenyl)piperidin-4-yloxy)benzofuran-2-carboxamido) piperidine-1-carboxylate]"
7,> 10000,"O=C(NC1CCNCC1)c1cc2cc(OC3CCN(c4ccc(C(F)(F)F)cc4)CC3)ccc2o1 [Compound 1-86, N-(piperidin-4-yl)-5-(1-(4-(trifluoromethyl)phenyl)piperidin-4-yloxy)benzofuran-2-carboxamide]"
8,< 100,"O=C(NC1CCN(Cc2ccncc2)CC1)c1cc2ccc(OC3CCN(c4ccc(C(F)(F)F)cc4)CC3)cc2o1 [Compound 1-87, N-(1-(pyridin-4-ylmethyl)piperidin-4-yl)-6-(1-(4-(trifluoromethyl)phenyl)piperidin-4-yloxy)benzofuran-2-carboxamide]"
9,< 100,"O=C(NC1CCN(Cc2ccncc2)CC1)c1cc2ccc(OC3CCN(c4ccc(OC(F)(F)F)cc4)CC3)cc2o1 [Compound 1-88, N-(1-(pyridin-4-ylmethyl)piperidin-4-yl)-6-(1-(4-(trifluoromethoxy)phenyl)piperidin-4-yloxy)benzofuran-2-carboxamide]"
10,< 100,"N#Cc1ccc(CN2CCC(NC(=O)c3cc4ccc(OC5CCN(c6ccc(OC(F)(F)F)cc6)CC5)cc4o3)CC2)cc1 [Compound 1-89, N-(1-(4-cyanobenzyl)piperidin-4-yl)-6-(1-(4-(trifluoromethoxy)phenyl)piperidin-4-yloxy)benzofuran-2-carboxamide]"
